pIC50: −log10 of the molar value.
These compounds were tested against T1, mPGES-1 (Homo sapiens, UniProt O14684) (assay: mPGES-1 biological test: conversion of PGH2 to PGE2, PGE2 quantified by HPLC). Details: mPGES-1 expressed in E. coli, membrane fraction; 25 min preincubation with inhibitor, 60 s with PGH2, room temperature; read-out: IC50 (inhibition of mPGES-1).
T1 construct: made in house; host or cells: E. coli
T1 sequence (O14684 1-152): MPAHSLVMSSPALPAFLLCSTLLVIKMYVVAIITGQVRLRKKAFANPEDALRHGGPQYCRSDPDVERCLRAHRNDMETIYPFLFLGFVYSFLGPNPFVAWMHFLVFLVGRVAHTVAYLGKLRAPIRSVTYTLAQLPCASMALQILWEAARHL
Assay type: biochemical
Method: In the assay mPGES-1 catalyses the reaction where the substrate PGH2 is converted to PGE2. mPGES-1 is expressed in E. coli and the membrane fraction is dissolved in 20 mM NaPi-buffer pH 8.0 and stored at −80° C. In the assay mPGES-1 is dissolved in 0.1M KPi-buffer pH 7.35 with 2.5 mM glutathione. The stop solution consists of H2O/MeCN (7/3), containing FeCl2 (25 mM) and HCl (0.15 M). The assay is performed at room temperature in 96-well plates. Analysis of the amount of PGE2 is performed with reversed phase HPLC (Waters 2795 equipped with a 3.9×150 mm C18 column). The mobile phase consists of H2O/MeCN (7/3), containing TFA (0.056%), and absorbance is measured at 195 nm with a Waters 2487 UV-detector.
The following is added chronologically to each well: • 1. 100 μL mPGES-1 in KPi-buffer with glutathione. Total protein concentration: 0.02 mg/mL. • 2. 1 μL inhibitor in DMSO. Incubation of the plate at room temperature for 25 minutes. • 3. 4 μL of a 0.25 mM PGH2 solution. Incubation of the plate at room temperature for 60 seconds. • 4. […] stop solution. • 180 μL per sample is analyzed with HPLC.

| SMILES | pIC50 |
| --- | --- |
| CC(C)Oc1ccc(-n2c(C(=O)O)c(C(=O)O)c3cc(Oc4ccc(C(F)(F)F)cn4)ccc32)cc1 [Example 19, 1-(4-Isopropoxyphenyl)-5-(5-trifluoromethylpyridin-2-yloxy)indole-2,3-dicarboxylic acid] | 5.37 |
| CCOC(=O)c1c(C(=O)O)c2cc(-c3ccc(C(F)(F)F)cc3)ccc2n1-c1ccc(OC2CCCC2)cc1 [Example 67, 1-(4-Cyclopentyloxyphenyl)-5-(4-trifluoromethylphenyl)indole-2,3-dicarboxylic acid 2-ethyl ester] | 5.72 |
| CC(=O)NC(Cc1c(C(=O)O)n(-c2ccc(OC3CCCC3)cc2)c2ccc(-c3ccc(C(F)(F)F)cc3)cc12)C(=O)O (centres unmarked) [Example 85, 3-(2-Acetylamino-2-carboxyethyl)-1-(4-cyclopentyloxyphenyl)-5-(4-trifluoromethylphenyl)indole-2-carboxylic acid] | 5.16 |
| CC(C)Oc1ccc(-n2c(C(=O)O)c(CN3CCCC3C(=O)O)c3cc(-c4ccc(C(C)(C)C)cc4)ccc32)cc1 (centres unmarked) [Example 87, 1-[5-(4-tert-Butylphenyl)-2-carboxy-1-(4-isopropoxyphenyl)indol-3-ylmethyl]-2-carboxypyrrolidinium chloride] | 5.64 |
| CC(C)Oc1ccc(-n2c(C(=O)O)c(CCC(=O)O)c3cc(-c4ccc(C(F)(F)F)cn4)ccc32)cc1 [Example 88, 3-(2-Carboxyethyl)-1-(4-isopropoxyphenyl)-5-(5-trifluoromethylpyridin-2-yl)indole-2-carboxylic acid] | 5.27 |

Reference: patent publication US8097623B2, “Indoles useful in the treatment of inflammation” (Biolipox AB, priority 2005, dated 2012)
